Legend:
[1] = Apparent (surface) pKa of the LNP formulation (TNS assay); type: physicochemical; details: Table 1A
Summary of the method: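 LNP (0.04 mg/mL mRNA) mixed with TNS reagent in 21 buffers spanning about pH 3-12, in triplicate; fluorescence plotted against pH as sigmoidal curve. Apparent pKa taken as […] curve inflection point; validated in 1× PBS and 20 mM Tris w/8% sucrose.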

luciferase (Luc) mRNA [2] = assay: Luc expression, whole body bioluminescence after intravenous administration to mice; type: in vivo; details: for Total Flux 3 hours / Total Flux 6 hours / Total Flux 24 hours: mice, i.v., 0.5 mg/kg, Luc mRNA; for Fold increase in total body Luc Flux relative to MC3 at 6 h: Table 3A, i.v. administration
Summary of the method: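 Luc mRNA nanoparticle formulations given intravenously to mice (n=6) at 0.5 mg/kg; whole-body bioluminescence imaged at 3, 6 and 24 h. CD-1 mice received IP D-luciferin (200 μL of 15 mg/mL) 15 min before imaging; total flux quantified by region of interest.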

[3] = Encapsulation efficiency of RNA (QUANT-IT RIBOGREEN RNA assay); type: physicochemical; details: Table 1A
Summary of the method: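 RiboGreen fluorescence (ex ~480, em ~520 nm) compared between intact samples and Triton X-100-lysed samples after 15 min at 37 °C in TE buffer, pH 7.5. Percent free RNA is the blank-corrected intact/disrupted ratio.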

[4] = Particle size and polydispersity index of nanoparticle compositions (Zetasizer Nano ZS); type: physicochemical; details: Table 1A; for Size (nm): lipid:DSPC:cholesterol:PEG-DMG 50:10:38.5:1.5 mol %
Summary of the method: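 Particle size and PDI were measured on a Zetasizer Nano ZS with the nanoparticle compositions dispersed in 1×PBS.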

luciferase (Luc) mRNA [5] = assay: Luc expression in liver, lung, spleen and femur 6 hours after intravenous administration; type: in vivo; details: mice, 0.5 mpk; for Total Flux Liver / Total Flux Lung / Total Flux Spleen: intravenous
Summary of the method: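 LNP-formulated mRNA given IV to mice (n=3) at 0.5 mpk; at 6 h, bioluminescence imaged ex vivo 15 min after IP D-luciferin (15 mg/mL, 200 μL), organs imaged within 25 min. Values are total flux by region of interest.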

SMILES	pKa [1]	Lipid/MC3 AUC (luciferase (Luc) mRNA [2]; Table 3D, intravenous)	AUC (p/s * h) (luciferase (Luc) mRNA [2]; Table 3D, intravenous, Luc)	Total Flux 3 hours (luciferase (Luc) mRNA [2])	Total Flux 6 hours (luciferase (Luc) mRNA [2])	Total Flux 24 hours (luciferase (Luc) mRNA [2])	EE (%) [3] [%]	PDI [4]	Size (nm) [4] [nm]	Total Flux Liver (luciferase (Luc) mRNA [5])	Total Flux Lung (luciferase (Luc) mRNA [5])	Total Flux Spleen (luciferase (Luc) mRNA [5])	Flux in the spleen (luciferase (Luc) mRNA [5]; i.v., in words)	Fold increase in total body Luc Flux relative to MC3 at 6 h (luciferase (Luc) mRNA [2])
CCCCCCCCCOC(=O)CCCCCCCN(CCO)CCN(CCO)CCCCCCCC(=O)OC(CCCCCCCC)CCCCCCCC [Compound 159, Heptadecan-9-yl 8-((2-hydroxyethyl)(2-((2-hydroxyethyl)(8-(nonyloxy)-8-oxooctyl)amino)ethyl)amino)octanoate]	7.873	<0.01	1.355E+008	3.32E+06	1.20E+07	4.98E+05	99.29	0.190	75.9	1.13E+06	2.17E+05	7.24E+05	–	–
CCCCCCCCC(CCCCCCCC)OC(=O)CCCCCCCN(C)CCCCCCCC(=O)OC(CCCCCCCC)CCCCCCCC [Compound 124, Di(heptadecan-9-yl) 8,8′-(methylazanediyl)dioctanoate]	5.89	–	–	6.62E+07	3.91E+09	5.13E+06	97.7	0.1	61.3	8.46E+06	5.67E+04	8.06E+04	lowest	–
CCCCCCCCC(CCCCCCCC)OC(=O)CCCCCCCN(CCO)CCCC(=O)OC(CCCCCC)CCCCCCCC (centres unmarked) [Compound 73, Heptadecan-9-yl 8-((2-hydroxyethyl)(4-oxo-4-(pentadecan-7-yloxy)butyl)amino)octanoate]	5.95	–	–	8.10E+09	1.07E+10	1.27E+08	95.7	0.13	59.2	7.93E+08	6.17E+06	9.45E+06	–	0.48
CCCCCCCCCOC(=O)CCCCCCCN(CCO)CCCCCCCC(=O)OC1CCC(C2CCCCC2)CC1 (centres unmarked) [Compound 80, [1,1′—Bi(cyclohexan)]-4-yl 8-((2-hydroxyethyl)(8-(nonyloxy)-8-oxooctyl)amino)octanoate]	7.52	–	–	2.76E+08	3.26E+08	1.54E+07	90.7	0.19	118	1.09E+07	8.97E+04	4.71E+06	–	–
CCCCCCCC/C=C\CCCCCCCCN(CCO)CCCCCCCC(=O)OC(CCCCCCCC)CCCCCCCC [Compound 31, heptadecan-9-yl (Z)-8-((2-hydroxyethyl)(octadec-9-en-1-yl)amino) octanoate]	6.64	–	–	4.19E+10	5.31E+10	1.68E+09	95.11	0.15	73.9	5.17E+09	7.55E+06	9.42E+07	–	1.21
CCCCCCCCCOC(=O)CCCCCCCN(CCO)CCCCCCCC(=O)Oc1ccc(CCCCC)c(CCCCC)c1 [Compound 118, 3,4-Dipentylphenyl 8-((2-hydroxyethyl)(8-(nonyloxy)-8-oxooctyl)amino)octanoate]	6.14	–	–	1.46E+09	1.16E+09	4.37E+07	98	0.08	72.1	1.72E+08	1.98E+06	2.49E+07	–	–

From patent US12263248B2, “Compounds and compositions for intracellular delivery of therapeutic agents” (ModernaTX, Inc., priority 2018, dated 2025)
